In patent US6537545B1, “Use of corneal hardening agents in enzymeorthokeratology” (ISTA Pharmaceuticals, Inc., priority 1998, dated 2003):

Columns and labels:
[1] = system: Dutch Belted rabbit corneal epithelium; assay: Corneal scraping, rate of re-epithelialization (Example 2); type: in vivo; settings: rabbits; scraping on Study Day 71 after 63 days of drops; examined 1, 2, 3 days post-scraping; vs BSS
Method: On Study Day 71 (following 63 days of drops), corneal scrapings were performed as follows. Photographs of the uninstrumented eyes were taken after fluorescein staining. Fluorescein staining was performed as described in Example 1. The examined animals were then placed under general anesthesia using ketamine/xylazine also as described in Example 1. Two (2) drops of proparacaine were instilled into both eyes of the examined animal as an anesthetic. The animal to be examined was then placed on an examination table with one eye gently proptosed. A 10×15 mm strip of epithelium from the central cornea was denuded with a sterile #11 scalpel blade (Feather Safety Razor Co., Ltd., Japan). The examined animal was then returned to the slit lamp, topical fluorescein was applied, and the eye was photographed. The animals were examined for reepithelialization at 1, 2, and 3 days post-scraping. Photographs were taken and the rate of re-epithelialization was determined and documented.

Dutch Belted rabbit eyes = assay: GLP safety study, slit lamp biomicroscopy and intraocular pressure (Example 3); type: in vivo
Method: This study was conducted in compliance with the Good Laboratory Practices requirements of the U.S. Food and Drug Administration. Here, 27 eyes were randomly chosen to form the control group and the remaining 27 eyes formed the experimental group. All of the animals received ophthalmic examinations consisting of slit lamp biomicroscopy (as described in Experiment 2) and intraocular pressure measurements (IOP) as generally practiced in the art, before the experiment began to establish baseline conditions.
Following baseline examinations, all rabbits received 500 IU in 20 μL of hyaluronidase into the corneal stroma bilaterally using the injection method described in Experiment 1. No examinations or treatments were performed on the animals until Study Day 8. On Study Day 8, the animals received slit lamp examinations and IOP measurements.
Treatment with topical eyedrops began immediately after the Day 8 examinations. Each rabbit received 2 drops of test agent four times a day at 05:00, 09:00, 13:00 and 17:00. The 3% glyceraldehyde solution was prepared in 0.9% sodium chloride USP under Good Manufacturing Practices (GMP). The 0.9% sodium chloride for injection was also prepared using GMP. Each rabbit eye in the experimental group received the 3% glyceraldehyde solution while the control eyes received a 0.9% sodium chloride solution. […]

cornea = assay: Corneal elasticity, recovery from indentation by spherical glass indentor (Example 7); type: in vivo, human
Method: A precision spherical glass indentor was used to contact the corneal surface of subjects treated with the methods of the present invention to measure changes in corneal elasticity. The method used involved the application of the indentor, in the form of a small spherical ball to gently deflect into a test cornea to establish an initial deflection value. Measurements were taken by using an interferometer to view the deflection. Following this application, the relaxation period was measured by observing the change in the impression made by the indentor.
The indentation range of movement was characterized using a precision linear variable differential transducer (LVDT) device that measured the linear travel of a stage carrying the indentor probe. The average travel distance of the probe was established at approximately 700 micrometers. The contact depth of the indentor probe was measured by evaluating the corneal surface immediately after indentation and measuring the local height values caused by the probe contact. This value was measured to range from 266 to 300 micrometers.
A digital timer was used to mark the beginning and ending times during observation. Changes in the impression were readily observed during this period. The final end point was considered to be when the local fringe disturbance was recovered blending with the undisturbed neighboring fringes. […] However, given the time scales involved, the value of this error is considered to be small.
The method of inducing corneal inflection involved first contacting the test corneal with the indentor. After the initial contact with the cornea was established, the probe was moved forward into the cornea to a predetermined distance. Seven hundred microns was used to achieve adequate deflection. Topography was taken immediately after the deflection to record the impression made in the cornea. Observations of the cornea were then made at one (1) minute intervals to note the change in the impression made. […] Another topography was done after five (5) minutes to record the final condition of the impression. […]

In the case of `O=CC(O)CO` (centres unmarked) [glyceraldehyde], the “healing rate of scraped corneas (re-epithelialization)” value [1] was “healed at a rate equivalent to those of the control”, the “overall deleterious effects in rabbits” value (Dutch Belted rabbit eyes; 3% glyceraldehyde solution, 32 days) was “no significant deleterious effects” and the “number of the 14 criteria (slit lamp findings, IOP) with statistically significant differences between control and glyceraldehyde treated groups” value (Dutch Belted rabbit eyes; 27 rabbits, 500 IU hyaluronidase bilaterally, 3% glyceraldehyde 2 drops four times a day, 32 days vs 0.9% sodium chloride, any timepoint) was “None”. The “time for cornea to recover from indentation” value (cornea; after about two weeks of glyceraldehyde solution drops) was 20 to 30 s and the “change in corneal elasticity after treatment” value (cornea; glyceraldehyde solution drops, from more rapid indentation recovery) was “more elastic”.
